Columns and labels:
[1] = biological target: T1, Inhibitor of nuclear factor kappa-B kinase subunit beta (Homo sapiens) (UniProt O14920); experiment: Selectivity interaction (KinomeScan (DiscoverX)) EUB0000655a IKBKB; details: at 10 µM
T1 sequence (whole entry): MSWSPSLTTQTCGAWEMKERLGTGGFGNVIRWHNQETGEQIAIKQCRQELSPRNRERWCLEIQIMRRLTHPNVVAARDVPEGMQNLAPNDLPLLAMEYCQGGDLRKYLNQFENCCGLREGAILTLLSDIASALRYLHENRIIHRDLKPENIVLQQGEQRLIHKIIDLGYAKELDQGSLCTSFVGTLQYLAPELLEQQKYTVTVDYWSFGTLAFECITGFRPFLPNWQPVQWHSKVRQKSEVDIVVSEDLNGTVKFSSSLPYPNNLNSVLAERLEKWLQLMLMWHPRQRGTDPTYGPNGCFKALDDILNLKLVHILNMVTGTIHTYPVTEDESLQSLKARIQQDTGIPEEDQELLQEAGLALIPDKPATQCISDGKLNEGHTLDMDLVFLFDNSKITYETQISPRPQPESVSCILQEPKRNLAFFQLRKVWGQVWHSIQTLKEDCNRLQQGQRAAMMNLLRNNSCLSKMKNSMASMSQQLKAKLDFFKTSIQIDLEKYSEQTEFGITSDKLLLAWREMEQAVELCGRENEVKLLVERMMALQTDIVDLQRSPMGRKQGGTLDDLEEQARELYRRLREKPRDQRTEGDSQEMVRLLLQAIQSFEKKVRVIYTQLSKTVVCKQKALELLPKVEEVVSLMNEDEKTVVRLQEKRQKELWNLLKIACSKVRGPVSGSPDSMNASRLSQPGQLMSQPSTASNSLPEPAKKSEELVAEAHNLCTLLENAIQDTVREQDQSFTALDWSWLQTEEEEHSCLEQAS

[2] = biological target: Cell division control protein 42 homolog (Homo sapiens) (UniProt P60953); experiment: Selectivity interaction (SelectScreen profiling (Invitrogen)) EUB0000607a CDC42; details: at 2 µM
[3] = biological target: T2, 3-phosphoinositide-dependent protein kinase 1 (Homo sapiens) (UniProt O15530); experiment: Selectivity interaction (KinomeScan (DiscoverX)) EUB0000045b PDPK1
T2 sequence (whole entry): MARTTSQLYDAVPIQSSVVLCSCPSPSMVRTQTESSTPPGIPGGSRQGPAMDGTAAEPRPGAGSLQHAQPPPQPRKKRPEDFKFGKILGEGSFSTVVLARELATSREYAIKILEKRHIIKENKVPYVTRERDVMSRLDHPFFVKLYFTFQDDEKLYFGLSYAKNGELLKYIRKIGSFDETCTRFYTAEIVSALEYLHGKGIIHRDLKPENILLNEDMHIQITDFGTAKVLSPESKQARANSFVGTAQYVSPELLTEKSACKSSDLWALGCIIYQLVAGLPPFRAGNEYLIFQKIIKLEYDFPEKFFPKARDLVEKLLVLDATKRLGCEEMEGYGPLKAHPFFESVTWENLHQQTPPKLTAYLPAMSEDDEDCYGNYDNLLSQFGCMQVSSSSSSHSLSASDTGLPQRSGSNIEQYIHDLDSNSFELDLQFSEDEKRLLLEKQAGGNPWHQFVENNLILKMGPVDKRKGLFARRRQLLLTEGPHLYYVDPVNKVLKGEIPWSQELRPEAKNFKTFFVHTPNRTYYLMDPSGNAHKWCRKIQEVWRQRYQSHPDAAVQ

[4] = biological target: T3, Muscle, skeletal receptor tyrosine-protein kinase (Homo sapiens) (UniProt O15146); experiment: Selectivity interaction (KinomeScan (DiscoverX)) EUB0000229b MUSK; details: at 10 µM
T3 sequence (whole entry): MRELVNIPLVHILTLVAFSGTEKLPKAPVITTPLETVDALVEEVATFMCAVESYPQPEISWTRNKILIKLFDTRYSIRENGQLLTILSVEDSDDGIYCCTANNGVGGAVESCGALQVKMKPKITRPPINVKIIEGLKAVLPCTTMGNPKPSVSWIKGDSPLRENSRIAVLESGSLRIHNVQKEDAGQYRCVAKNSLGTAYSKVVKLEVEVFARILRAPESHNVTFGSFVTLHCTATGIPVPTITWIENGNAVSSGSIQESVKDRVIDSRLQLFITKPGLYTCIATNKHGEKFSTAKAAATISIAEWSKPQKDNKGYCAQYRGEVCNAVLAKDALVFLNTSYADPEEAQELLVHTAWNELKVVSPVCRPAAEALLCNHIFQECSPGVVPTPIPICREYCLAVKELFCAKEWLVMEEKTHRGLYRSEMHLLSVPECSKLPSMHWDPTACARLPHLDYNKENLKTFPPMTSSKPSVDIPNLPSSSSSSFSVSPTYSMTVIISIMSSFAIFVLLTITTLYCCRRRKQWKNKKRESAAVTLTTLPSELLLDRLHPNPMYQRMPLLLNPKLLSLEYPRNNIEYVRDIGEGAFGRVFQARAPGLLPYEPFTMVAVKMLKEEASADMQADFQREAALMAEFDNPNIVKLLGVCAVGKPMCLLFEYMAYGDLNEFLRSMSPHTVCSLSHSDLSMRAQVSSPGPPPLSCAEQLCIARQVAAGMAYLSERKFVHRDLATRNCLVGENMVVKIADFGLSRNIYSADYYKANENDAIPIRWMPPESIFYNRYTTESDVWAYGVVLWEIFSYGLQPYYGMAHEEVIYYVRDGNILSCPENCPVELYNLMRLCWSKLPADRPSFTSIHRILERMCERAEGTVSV

[5] = biological target: T4, Aurora kinase A (Homo sapiens) (UniProt O14965); experiment: Selectivity interaction (KinomeScan (DiscoverX)) EUB0001049a STK6; details: at 1 µM
T4 sequence (whole entry): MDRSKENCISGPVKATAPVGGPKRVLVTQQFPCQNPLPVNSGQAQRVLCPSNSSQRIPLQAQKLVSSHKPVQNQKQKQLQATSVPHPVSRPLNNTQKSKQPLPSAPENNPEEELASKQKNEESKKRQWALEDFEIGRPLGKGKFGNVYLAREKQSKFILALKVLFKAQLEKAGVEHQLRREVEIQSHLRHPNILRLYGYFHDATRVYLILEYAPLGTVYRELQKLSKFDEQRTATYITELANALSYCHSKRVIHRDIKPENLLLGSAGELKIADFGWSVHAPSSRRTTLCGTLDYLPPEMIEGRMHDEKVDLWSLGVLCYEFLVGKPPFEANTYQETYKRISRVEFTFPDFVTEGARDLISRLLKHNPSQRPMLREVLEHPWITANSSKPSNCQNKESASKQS

[6] = biological target: Mitogen-activated protein kinase kinase kinase kinase 1 (Homo sapiens) (UniProt Q92918); experiment: Selectivity interaction (KinomeScan (DiscoverX)) EUB0000695a MAP4K1; details: at 100 nM
Sequence of Mitogen-activated protein kinase kinase kinase kinase 1 (Homo sapiens) (Q92918 whole entry, looked up): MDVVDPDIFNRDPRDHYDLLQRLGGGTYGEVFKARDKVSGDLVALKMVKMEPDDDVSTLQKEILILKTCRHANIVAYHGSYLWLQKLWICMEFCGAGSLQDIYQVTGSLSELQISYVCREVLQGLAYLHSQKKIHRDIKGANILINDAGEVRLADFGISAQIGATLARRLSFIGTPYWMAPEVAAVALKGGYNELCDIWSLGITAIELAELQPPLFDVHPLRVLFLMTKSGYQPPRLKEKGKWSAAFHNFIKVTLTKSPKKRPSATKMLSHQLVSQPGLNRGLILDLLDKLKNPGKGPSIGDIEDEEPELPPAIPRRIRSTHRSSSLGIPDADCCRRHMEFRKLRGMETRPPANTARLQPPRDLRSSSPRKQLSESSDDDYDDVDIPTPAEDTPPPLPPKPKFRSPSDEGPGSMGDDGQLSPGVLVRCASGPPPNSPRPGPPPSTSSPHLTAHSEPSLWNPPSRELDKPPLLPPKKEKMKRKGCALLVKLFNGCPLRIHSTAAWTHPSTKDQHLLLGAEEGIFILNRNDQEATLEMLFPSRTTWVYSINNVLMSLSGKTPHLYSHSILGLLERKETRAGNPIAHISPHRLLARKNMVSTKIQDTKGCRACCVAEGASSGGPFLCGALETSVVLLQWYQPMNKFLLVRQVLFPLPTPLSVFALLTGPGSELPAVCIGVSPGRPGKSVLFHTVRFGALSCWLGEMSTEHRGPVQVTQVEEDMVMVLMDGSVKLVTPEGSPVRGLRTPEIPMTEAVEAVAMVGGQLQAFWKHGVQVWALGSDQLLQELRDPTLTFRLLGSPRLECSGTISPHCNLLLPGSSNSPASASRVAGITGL

Sequence of Cell division control protein 42 homolog (Homo sapiens) (P60953 whole entry, looked up): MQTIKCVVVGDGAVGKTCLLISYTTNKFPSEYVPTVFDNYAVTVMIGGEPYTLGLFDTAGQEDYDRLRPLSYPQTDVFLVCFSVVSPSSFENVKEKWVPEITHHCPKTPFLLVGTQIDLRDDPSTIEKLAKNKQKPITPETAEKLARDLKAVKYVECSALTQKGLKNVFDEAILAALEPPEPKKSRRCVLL

`CN(C)CCOc1ccc(-c2nc(-c3ccncc3)c(-c3ccc4c(c3)CC/C4=N\O)[nH]2)cc1` showed a % of control [1] of 100%.
`CNC(=O)Nc1ccc(-c2nc(N3CC4CCC(C3)O4)c3cnn(C4CCC5(CC4)OCCO5)c3n2)cc1` was tested, and the % of inhibition [2] was 9%.
In the case of `C=CC(=O)Nc1cc(-n2c(=O)ccc3cnc4ccc(-c5ccc(NS(C)(=O)=O)cc5)cc4c32)ccc1C`, the % of control ([3]; at 1 µM) is reported as 100% and the % of control ([3]; at 10 µM) is reported as 100%.
Work on `COc1cc(N(C)c2ccnc3ccc(C(F)(F)F)cc23)cc(OC)c1OC` yielded a % binding [4] of 81%.
Work on `COc1cc(Nc2nc(C)cc(-c3cnn4nc(OC)ccc34)n2)cc(C(F)(F)F)c1` yielded a % of control [5] of 93%.
Molecule `Cc1cc(F)c(C(=O)Nc2cccc(-c3nncn3C(C)C)n2)cc1-n1cnc(C2CC2)c1` has a % of control [6] of 97%.
